In ChEMBL document CHEMBL5113519, “Discovery of Novel Imidazo[4,5-c]quinoline Derivatives to Treat Inflammatory Bowel Disease (IBD) by Inhibiting Multiple Proinflammatory Signaling Pathways and Restoring Intestinal Homeostasis” (J Med Chem, 2022):
Activity calls are given as the source filed them. No cut-off for these calls is given here.

What was measured:
[1] = Toxicity in mouse assessed as abnormal change in lung at 20 to 50 mg/kg, IG measured upto 2 weeks; type: organism-based; settings: in vivo, po, 336 h, dose 20-50 mg/kg
Mus musculus [2] = assay: Antiinflammatory activity in DSS-induced acute colitis C57BL/6 mouse model assessed as reduction in intestinal edema in colon by measuring histopathological score at 1 to 3 mg/kg, po by H and E staining based analysis; type: functional, organism-based; settings: dose 1-3 mg/kg
Mus musculus [3] = assay: Antiinflammatory activity in DSS-induced acute colitis C57BL/6 mouse model assessed as reduction in inflammatory cell infiltration in colon by measuring histopathological score at 1 to 3 mg/kg, po by H and E staining based analysis; type: functional, organism-based; settings: dose 1-3 mg/kg
THP1-Dual [4] = assay: Anti-inflammatory activity against LPS-stimulated human THP1-Dual cells assessed as reduction in phosphorylation of NF-kappa B level incubated for 6 hrs by Western blot analysis; type: functional, cell-based; settings: dose 0.33-3 µM, DDE = dose-dependent effect
Mus musculus [5] = assay: Antiinflammatory activity in DSS-induced acute colitis C57BL/6 mouse model assessed as reduction in lamina propria damage in colon by measuring histopathological score at 1 to 3 mg/kg, po by H and E staining based analysis; type: functional, organism-based; settings: dose 1-3 mg/kg
[6] = Toxicity in mouse assessed as effect on red blood cell number at 20 to 50 mg/kg, IG measured upto 2 weeks; type: organism-based; settings: in vivo, po, 336 h, dose 20-50 mg/kg
[7] = Cytotoxicity against human HUVEC cells assessed as inhibition of cell growth measured after 24 hrs by CCK-8 method; type: toxicity, cell-based
Mus musculus [8] = assay: Anti-inflammatory bowel disease activity in DSS-induced acute enteritis mouse model assessed as decrese in lactobacillus abundance at 3 mg/kg; type: functional, organism-based
[9] = target: Tyrosine-protein kinase JAK2 (Homo sapiens, UniProt O60674)
Sequence of Tyrosine-protein kinase JAK2 (O60674 whole entry): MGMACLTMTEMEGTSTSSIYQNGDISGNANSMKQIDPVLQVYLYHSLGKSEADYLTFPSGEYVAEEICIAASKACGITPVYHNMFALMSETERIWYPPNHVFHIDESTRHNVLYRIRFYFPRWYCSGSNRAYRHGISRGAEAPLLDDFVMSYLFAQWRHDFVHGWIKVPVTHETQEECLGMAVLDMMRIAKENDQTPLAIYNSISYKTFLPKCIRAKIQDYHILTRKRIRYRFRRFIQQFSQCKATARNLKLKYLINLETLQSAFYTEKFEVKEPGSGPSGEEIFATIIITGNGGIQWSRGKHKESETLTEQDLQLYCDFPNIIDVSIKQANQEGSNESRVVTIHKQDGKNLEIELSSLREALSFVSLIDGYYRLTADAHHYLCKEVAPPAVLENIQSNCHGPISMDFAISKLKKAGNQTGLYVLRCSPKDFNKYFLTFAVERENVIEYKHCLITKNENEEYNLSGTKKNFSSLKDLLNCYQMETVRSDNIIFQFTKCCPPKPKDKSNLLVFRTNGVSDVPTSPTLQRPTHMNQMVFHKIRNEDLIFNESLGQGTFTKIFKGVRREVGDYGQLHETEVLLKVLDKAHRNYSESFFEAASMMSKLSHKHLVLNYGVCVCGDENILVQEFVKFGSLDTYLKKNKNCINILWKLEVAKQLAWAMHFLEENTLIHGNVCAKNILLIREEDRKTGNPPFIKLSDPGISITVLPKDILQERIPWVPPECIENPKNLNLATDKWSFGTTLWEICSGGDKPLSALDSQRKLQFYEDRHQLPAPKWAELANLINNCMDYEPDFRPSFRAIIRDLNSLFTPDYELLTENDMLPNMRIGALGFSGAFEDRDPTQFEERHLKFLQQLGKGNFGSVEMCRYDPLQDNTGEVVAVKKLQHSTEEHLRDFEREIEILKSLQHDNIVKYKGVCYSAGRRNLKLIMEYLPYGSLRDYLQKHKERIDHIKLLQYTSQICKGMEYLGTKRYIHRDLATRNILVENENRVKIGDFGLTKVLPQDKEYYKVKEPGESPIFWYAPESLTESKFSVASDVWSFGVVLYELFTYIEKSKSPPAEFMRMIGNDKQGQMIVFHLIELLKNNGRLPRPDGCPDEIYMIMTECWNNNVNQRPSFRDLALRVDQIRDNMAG
Description: Inhibition of JAK2 (unknown origin) using Kinase/Tyr 6 peptide as substrate incubated for 1 hrs in presence of ATP by fluorescence microplate reader analysis

Mus musculus [10] = assay: Anti-inflammatory activity in TNBS induced IBD BALB/c mouse model assessed as reduction in weight by measuring disease activity index score at 1 to 5 mg/kg via oral gavage administered daily for 12 days measured daily; type: functional, organism-based; settings: dose 1-5 mg/kg, time 12.0 day
Mus musculus [11] = assay: Antiinflammatory activity in DSS-induced acute colitis C57BL/6 mouse model assessed as reduction in bloody stool by measuring DAI score at 1 to 3 mg/kg, po administered daily and measured upto 11 days; type: functional, organism-based; settings: dose 1-3 mg/kg, time <= 11.0 day
THP1-Dual [12] = assay: Downregulation of IFN-gamma in human THP1-Dual cells at 1 uM incubated for 6 hrs; type: functional, cell-based
Mus musculus [13] = assay: Antiinflammatory activity in DSS-induced acute colitis C57BL/6 mouse model assessed as reduction stool softness by measuring DAI score at 1 to 3 mg/kg, po administered daily and measured upto 11 days; type: functional, organism-based; settings: dose 1-3 mg/kg, time <= 11.0 day
Mus musculus [14] = assay: Antiinflammatory activity in DSS-induced acute colitis C57BL/6 mouse model assessed as reduction in number of goblet cells in colon by measuring histopathological score at 1 to 3 mg/kg, po by H and E staining based analysis; type: functional, organism-based; settings: dose 1-3 mg/kg
THP1-Dual [15] = assay: Anti-inflammatory activity against LPS-stimulated human THP1-Dual cells assessed as inhibition of IL-6 secretion incubated for 6 hrs followed by LPS stimulation by Western blot analysis; type: functional, cell-based; settings: dose 0.33-3 µM, DDE = dose-dependent effect
Mus musculus [16] = assay: Anti-inflammatory bowl disease activity in DSS-induced acute enteritis mouse model assessed as increase in norank_f_Muribaculaceae abundance at 3 mg/kg; type: functional, organism-based
THP1-Dual [17] = assay: Downregulation of unfolded protein response in human THP1-Dual cells at 1 uM incubated for 6 hrs; type: functional, cell-based
THP1-Dual [18] = assay: Inhibition of LPS induced IL12b expression in human THP1-Dual cells at 1 uM incubated for 6 hrs; type: functional, cell-based
[19] = Cytotoxicity against human THP1-Dual cells assessed as inhibition of cell growth measured after 24 hrs by CCK-8 method; type: toxicity, cell-based
THP1-Dual [20] = assay: Anti-inflammatory activity against LPS-stimulated human THP1-Dual cells assessed as reduction in STAT3 phosphorylation level incubated for 6 hrs by Western blot analysis; type: functional, cell-based; settings: dose 0.33-3 µM, DDE = dose-dependent effect
Mus musculus [21] = assay: Antiinflammatory activity in DSS-induced acute colitis C57BL/6 mouse model assessed as reduction in colon villi integrity in colon by measuring histopathological score at 1 to 3 mg/kg, po by H and E staining based analysis; type: functional, organism-based; settings: dose 1-3 mg/kg
[22] = Toxicity in mouse assessed as abnormality in gastrointestinal tract at 20 to 50 mg/kg, IG measured upto 2 weeks; type: organism-based; settings: in vivo, po, 336 h, dose 20-50 mg/kg
[23] = Toxicity in mouse assessed as drug tolerability at 20 to 50 mg/kg, IG measured upto 2 weeks; type: organism-based; settings: in vivo, po, 336 h, dose 20-50 mg/kg
Mus musculus [24] = assay: Antiinflammatory activity in DSS-induced acute colitis C57BL/6 mouse model assessed as reduction in weight loss by measuring DAI score at 1 to 3 mg/kg, po administered daily and measured upto 11 days; type: functional, organism-based; settings: dose 1-3 mg/kg, time <= 11.0 day
THP1-Dual [25] = assay: Downregulation of TNF alpha in human THP1-Dual cells at 1 uM incubated for 6 hrs; type: functional, cell-based
[26] = Cytotoxicity against human GM00637 cells assessed as inhibition of cell growth measured after 24 hrs by CCK-8 method; type: toxicity, cell-based
Mus musculus [27] = assay: Antiinflammatory activity in DSS-induced acute colitis C57BL/6 mouse model assessed as recovery of colon length at 1 to 3 mg/kg, po administered daily and measured upto 11 days; type: functional, organism-based; settings: dose 1-3 mg/kg, time <= 11.0 day
THP1-Dual [28] = assay: Anti-inflammatory activity against LPS-stimulated human THP1-Dual cells assessed as inhibition of IL-1 beta secretion incubated for 6 hrs followed by LPS stimulation by Western blot analysis; type: functional, cell-based; settings: dose 0.33-3 µM, DDE = dose-dependent effect
[29] = Toxicity in mouse assessed as abnormal change in kidney at 50 mg/kg, IG measured upto 2 weeks; type: organism-based; settings: in vivo, po, 336 h

IC50 [9]: 0.015 µM
Compound: Cc1nc2cnc3ccc(-c4cc(Cl)c(O)c(Cl)c4)cc3c2n1C1CCN(C)CC1
Activity [1]: Non-Toxic
Activity (Mus musculus [2]): Active
Activity (Mus musculus [3]): Active
Activity (THP1-Dual [4]): Dde
Activity (Mus musculus [5]): Active
Activity [6]: Non-Toxic
IC50 at 24 h [7]: > 10 µM
Activity (Mus musculus [8]): Active
Activity (Mus musculus [10]): Active
Activity (Mus musculus [11]): Active
Activity (THP1-Dual [12]): Active
Activity (Mus musculus [13]): Active
Activity (Mus musculus [14]): Active
Activity (THP1-Dual [15]): Dde
Activity (Mus musculus [16]): Active
Activity (THP1-Dual [17]): Active
inhibition (THP1-Dual [18]): Active
IC50 at 24 h [19]: 4.3 µM
Activity (THP1-Dual [20]): Dde
Activity (Mus musculus [21]): Active
Activity [22]: Non-Toxic
Activity [23]: Non-Toxic
Activity (Mus musculus [24]): Active
Activity (THP1-Dual [25]): Active
IC50 at 24 h [26]: > 10 µM
Activity (Mus musculus [27]): Active
Activity (THP1-Dual [28]): Dde
Activity [29]: Non-Toxic
